In patent publication US20140243350A1, “USE OF SEROTONIN RECEPTOR AGONISTS FOR TREATMENT OF MOVEMENT DISORDERS” (CONTERA PHARMA APS, priority 2011, published 2014):
Like-named read-outs stand apart in the source and are kept apart here.

How the values were obtained:
[1] = tested on: unilaterally 6-OHDA-lesioned rats; details: buspirone alone 0.5 mg/kg i.p.
Source text: 6-OHDA (6-hydroxydopamine) is a neurotoxin that selectively kills dopaminergic and noradrenergic neurons and induces a reduction of dopamine levels in the brain. […] These are axial, limb and oral movements that occur only on the body side that is […] to the lesion.
In the mild cases: lateral flexion of the neck or torsional movements of the upper trunk towards the side contralateral to the lesion. With repeated injection of L-DOPA, this movement may develop into a pronounced and continuous dystonia-like axial torsion. […] In mild cases: hyperkinetic, jerky stepping movements of the forelimb contralateral to the lesion, or small circular movements of the forelimb to and from the snout.

[2] = tested on: LID model rats; details: buspirone alone 0.2 mg/kg s.c., 11 min before AIM test; FIG. 8A
[3] = tested on: patients treated with neuroleptics; details: open study, relative high doses; cited from earlier work
[4] = tested on: naïve rats; details: retigabine alone 10 mg/kg i.p.; for total move distance (locomotor activity) in open field test: FIG. 6; for total velocity (locomotor activity) in open field test: FIG. 7; for locomotor activity (moving distance and velocity) in open field test: FIGS. 6 and 7
Description: Species: 60 Sprague-Dawley male rats (180-220 g, bred in house, originally from SLAC Labortory Animal Co. Ltd) at 9-week of age.
Administration and dose regimen for the groups of animals (each comprising 10 rats):
Vehicle: 10% Tween 80, i.p., 30 min before test, n=10. Buspirone 1: Buspirone (From Sigma, Cat. No. B7148, Lot. No. 042K1763Z) 1 mg/kg, i.p. 30 min before test, n=10. Buspirone 2: Buspirone 2 mg/kg, i.p. 30 min before test, n=10.
Rats were put in open-field chambers (dimensions 40 cm×40 cm×40 cm) 30 minutes after dosing. After a 15 minutes habituation, locomotion were recorded and analyzed by Enthovision Video Tracking Software (Noldus Information Technology, Netherlands) for 60 minutes. All locomotor activities were done during dark phase and to eliminate olfactory cues, the arena was thoroughly cleaned with 70% v/v ethanol between each test.
Data statistics: The total locomotor activity is expressed as total moved distance (cm) and average velocity (cm/s) every 10 minutes during 60 minutes. The data were analyzed using One-Way ANOVA and the Tukey post-hoc test. The locomotor activity in six time point is expressed as moved distance (cm) and average velocity (cm/s) every 10 minutes. The data were analyzed using One-Way ANOVA and the Tukey post-hoc test in each time point.

| SMILES | abnormal involuntary movements (AIM), sum of Lo, Ax, Li and Ol scores per testing session, time course ([1]; FIG. 1, vs vehicle) | AUC (20-60 min) of total AIM (Lo+Ax+Li+Ol) ([1]; FIG. 2) | AUC (20-60 min) of locomotive limb (Li) AIM scores ([1]; FIG. 3) | AUC (20-60 min) of locomotive Axial (Ax) AIM scores ([1]; FIG. 4) | AUC (20-60 min) of Orolingual (OL) AIM scores ([1]; FIG. 5) | AUC (10-190 min) of total AIM (Lo+Ax+Li+Ol) [2] | effects on tardive dyskinesia, Parkinsonism and akathisia [3] | total move distance (locomotor activity) in open field test ([4]; after 20 to 60 minutes) | total velocity (locomotor activity) in open field test ([4]; after 20 to 60 minutes) | total velocity (locomotor activity) in open field test ([4]; after 10 minutes, vs vehicle) | locomotor activity (moving distance and velocity) in open field test ([4]; after 20 mins) | locomotor activity (moving distance and velocity) in open field test ([4]; initially (after 10 min)) | total move distance (locomotor activity) in open field test ([4]; initially, vs vehicle) |
| --- | --- | --- | --- | --- | --- | --- | --- | --- | --- | --- | --- | --- | --- |
| O=C1CC2(CCCC2)CC(=O)N1CCCCN1CCN(c2ncccn2)CC1 [buspirone, 8-[4-(4-pyrimidin-2-ylpiperazin-1-yl)butyl]-8-azaspiro[4.5]decane-7,9-dione] | partially reduced | partially reduced | did not have an effect | partially reduced | significantly reduced | small effect | has effects | – | – | – | – | – | – |
| CCOC(=O)Nc1ccc(NCc2ccc(F)cc2)cc1N [retigabine, N-(2-amino-4-(4-fluorobenzylamino)-phenylcarbamic acid) ethyl ester] | – | – | – | – | – | – | – | no significant differences | no significant differences | significantly inhibit | no significant difference | significantly inhibit | significantly inhibit |
